System: moderate-to-severe chronic spontaneous urticaria (CSU)
Assay: Phase 2 CSU study: urticaria activity score over 7 days (UAS7)
Type: in vivo, human
Conditions: Omalizumab-Naïve
Description: The study comprises a 12 week, randomized, double-blind, placebo-controlled, multi-center, dose-ranging efficacy and safety phase, followed by a 40 week open label extension (OLE) phase (see FIG. 1). The study consists of three phases and an optional OLE phase. […] Clinically, CSU is characterized by the spontaneous and recurrent appearance of pruritic hives. The proposed primary endpoints were the UAS7 at Week 12 in EU and EU reference countries and the ISS7 in the US. Regardless of where a participant was from, all assessments were the same. The UAS7 score is a composite score containing both the HSS7 and the ISS7. This allowed a global assessment of the two key components of urticaria: hives and itch. […] The UAS is a validated PRO measure. […] The daily UAS scores range from 0 to 6 point/day. […] Patients were to complete the UAS using the e-diary. […] The following secondary endpoints were to be analyzed using the same approach as for the primary endpoint: • Change from baseline in UAS7 at Week 4 • Change from baseline in UAS7 at Week 12 (for US and US reference countries) • Change from baseline in ISS7 at Week 12 (except US and US reference countries) • Change from baseline in HSS7 at Week 12 The following responder secondary endpoints were to be analyzed using the Cochran-Mantel-Haenszel test adjusted by region: • Proportion of participants with UAS7<6 at Week 12 • Proportion of participants with UAS7=0 at Week 12 Participants who received selected prohibited medications and/or rescue medications were to be considered as non-responders for time points after the medication usage. For other participants, all available data including those collected during the off-treatment period were to be used to determine the responder/non-responder status. Missing data were to be considered as non-responders.

[1] = Ethnicity Non-Hispanic, 400 mg TID
[2] = History of angioedema No, 400 mg BID
[3] = History of angioedema No, 400 mg QPM
[4] = History of angioedema No, 400 mg TID
[5] = History of angioedema Yes, 400 mg BID
[6] = History of angioedema Yes, 400 mg QPM
[7] = History of angioedema Yes, 400 mg TID
[8] = Race All the Others, 400 mg BID
[9] = Race All the Others, 400 mg QPM
[10] = Race All the Others, 400 mg TID
[11] = Region Eastern Europe, 400 mg BID
[12] = Region Eastern Europe, 400 mg QPM
[13] = Region Eastern Europe, 400 mg TID
[14] = Region Latin America, 400 mg BID
[15] = Region Latin America, 400 mg QPM

## CC(C)(C=C(C#N)C(=O)N1CCC[C@@H](n2nc(-c3ccc(Oc4ccccc4)cc3F)c3c(N)ncnc32)C1)N1CCN(C2COC2)CC1 [rilzabrutinib, (R)-2-[3-[4-amino-3-(2-fluoro-4-phenoxy-phenyl)pyrazolo[3,4-d]pyrimidin-1-yl]piperidine-1-carbonyl]-4-methyl-4-[4-(oxetan-3-yl)piperazin-1-yl]pent-2-enenitrile]
Ethnicity Non-Hispanic, 400 mg QPM
  Change from Baseline in UAS7 at Week 12: Mean (SD): −10.78 (9.25)
[1]
  Change from Baseline in UAS7 at Week 12: LS Mean (SE): −19.24 (2.48)
  Change from Baseline in UAS7 at Week 12: Mean (SD): −22.02 (10.28)
Gender Female, 400 mg BID
  Change from Baseline in UAS7 at Week 12: Mean (SD): −13.23 (11.66)
Gender Female, 400 mg QPM
  Change from Baseline in UAS7 at Week 12: Mean (SD): −10.93 (9.28)
Gender Female, 400 mg TID
  Change from Baseline in UAS7 at Week 12: Mean (SD): −20.41 (11.94)
Gender Male, 400 mg BID
  Change from Baseline in UAS7 at Week 12: LS Mean (SE): −16.67 (3.54)
  Change from Baseline in UAS7 at Week 12: Mean (SD): −16.87 (13.20)
Gender Male, 400 mg QPM
  Change from Baseline in UAS7 at Week 12: LS Mean (SE): −8.84 (4.15)
  Change from Baseline in UAS7 at Week 12: Mean (SD): −9.58 (10.13)
Gender Male, 400 mg TID
  Change from Baseline in UAS7 at Week 12: Mean (SD): −12.72 (5.65)
[2]
  Change from Baseline in UAS7 at Week 12: LS Mean (SE): −15.01 (2.39)
  Change from Baseline in UAS7 at Week 12: LS Mean Diff vs. placebo (95% CI): −5.13 (−12.18, 1.92)
  Change from Baseline in UAS7 at Week 12: Mean (SD): −17.10 (12.56)
[3]
  Change from Baseline in UAS7 at Week 12: LS Mean (SE): −7.72 (2.58)
  Change from Baseline in UAS7 at Week 12: LS Mean Diff vs. placebo (95% CI): 2.16 (−5.19, 9.52)
  Change from Baseline in UAS7 at Week 12: Mean (SD): −9.12 (7.74)
[4]
  Change from Baseline in UAS7 at Week 12: LS Mean (SE): −17.97 (2.40)
  Change from Baseline in UAS7 at Week 12: LS Mean Diff vs. placebo (95% CI): −8.09 (−15.14, −1.03)
  Change from Baseline in UAS7 at Week 12: Mean (SD): −20.20 (12.00)
[5]
  Change from Baseline in UAS7 at Week 12: LS Mean (SE): −11.58 (3.69)
  Change from Baseline in UAS7 at Week 12: LS Mean Diff vs. placebo (95% CI): −1.91 (−11.17, 7.35)
  Change from Baseline in UAS7 at Week 12: Mean (SD): −8.60 (9.01)
[6]
  Change from Baseline in UAS7 at Week 12: LS Mean (SE): −11.20 (2.97)
  Change from Baseline in UAS7 at Week 12: LS Mean Diff vs. placebo (95% CI): −1.53 (−9.72, 6.65)
  Change from Baseline in UAS7 at Week 12: Mean (SD): −13.08 (11.63)
[7]
  Change from Baseline in UAS7 at Week 12: LS Mean (SE): −15.33 (3.68)
  Change from Baseline in UAS7 at Week 12: LS Mean Diff vs. placebo (95% CI): −5.66 (−14.82, 3.50)
  Change from Baseline in UAS7 at Week 12: Mean (SD): −16.58 (10.23)
[8]
  Change from Baseline in UAS7 at Week 12: LS Mean (SE): −11.33 (3.66)
  Change from Baseline in UAS7 at Week 12: LS Mean Diff vs. placebo (95% CI): −4.82 (−14.87, 5.24)
  Change from Baseline in UAS7 at Week 12: Mean (SD): −11.25 (10.32)
[9]
  Change from Baseline in UAS7 at Week 12: LS Mean (SE): −8.43 (3.32)
  Change from Baseline in UAS7 at Week 12: LS Mean Diff vs. placebo (95% CI): −1.92 (−11.55, 7.72)
  Change from Baseline in UAS7 at Week 12: Mean (SD): −9.59 (9.91)
[10]
  Change from Baseline in UAS7 at Week 12: LS Mean (SE): −14.94 (3.44)
  Change from Baseline in UAS7 at Week 12: LS Mean Diff vs. placebo (95% CI): 8.43 (−18.08, 1.23)
  Change from Baseline in UAS7 at Week 12: Mean (SD): −14.86 (9.62)
Race White, 400 mg BID
  Change from Baseline in UAS7 at Week 12: LS Mean (SE): −15.38 (2.37)
  Change from Baseline in UAS7 at Week 12: LS Mean Diff vs. placebo (95% CI): −4.73 (−11.30, 1.84)
  Change from Baseline in UAS7 at Week 12: Mean (SD): −15.92 (12.79)
Race White, 400 mg QPM
  Change from Baseline in UAS7 at Week 12: LS Mean (SE): −9.37 (2.37)
  Change from Baseline in UAS7 at Week 12: LS Mean Diff vs. placebo (95% CI): 1.28 (−5.33, 7.88)
Race White, 400 mg TID
  Change from Baseline in UAS7 at Week 12: LS Mean (SE): −17.97 (2.44)
  Change from Baseline in UAS7 at Week 12: LS Mean Diff vs. placebo (95% CI): −7.33 (−13.95, −0.70)
  Change from Baseline in UAS7 at Week 12: Mean (SD): −20.70 (11.84)
Region Asia, 400 mg BID
  Change from Baseline in UAS7 at Week 12: LS Mean (SE): −11.32 (3.76)
  Change from Baseline in UAS7 at Week 12: LS Mean Diff vs. placebo (95% CI): −4.86 (−15.18, 5.46)
  Change from Baseline in UAS7 at Week 12: Mean (SD): −11.25 (10.32)
Region Asia, 400 mg QPM
  Change from Baseline in UAS7 at Week 12: LS Mean (SE): −9.00 (3.50)
  Change from Baseline in UAS7 at Week 12: Mean (SD): −9.59 (9.91)
Region Asia, 400 mg TID
  Change from Baseline in UAS7 at Week 12: LS Mean (SE): −14.25 (3.99)
  Change from Baseline in UAS7 at Week 12: LS Mean Diff vs. placebo (95% CI): −7.78 (−18.32, 2.76)
[11]
  Change from Baseline in UAS7 at Week 12: LS Mean (SE): −6.34 (10.64)
  Change from Baseline in UAS7 at Week 12: LS Mean Diff vs. placebo (95% CI): 13.37 (−19.79, 46.54)
  Change from Baseline in UAS7 at Week 12: Mean (SD): −20.14 (18.13)
[12]
  Change from Baseline in UAS7 at Week 12: LS Mean (SE): −5.35 (5.65)
  Change from Baseline in UAS7 at Week 12: LS Mean Diff vs. placebo (95% CI): 14.37 (−6.40, 35.15)
  Change from Baseline in UAS7 at Week 12: Mean (SD): −5.79 (5.45)
[13]
  Change from Baseline in UAS7 at Week 12: LS Mean (SE): −25.97 (6.17)
  Change from Baseline in UAS7 at Week 12: LS Mean Diff vs. placebo (95% CI): −6.26 (−24.55, 12.03)
  Change from Baseline in UAS7 at Week 12: Mean (SD): −21.88 (11.40)
[14]
  Change from Baseline in UAS7 at Week 12: LS Mean (SE): −9.26 (3.71)
  Change from Baseline in UAS7 at Week 12: LS Mean Diff vs. placebo (95% CI): 2.62 (−7.19, 12.43)
  Change from Baseline in UAS7 at Week 12: Mean (SD): −10.23 (11.81)
[15]
  Change from Baseline in UAS7 at Week 12: LS Mean (SE): −10.74 (3.14)
  Change from Baseline in UAS7 at Week 12: LS Mean Diff vs. placebo (95% CI): 1.14 (−7.86, 10.15)

— patent US20260256792A1, “TREATMENT OF CHRONIC SPONTANEOUS URTICARIA BY ADMINISTERING (R)-2-[3-[4-AMINO-3-(2-FLUORO-4-PHENOXY-PHENYL)PYRAZOLO[3,4-D]PYRIMIDIN-1-YL]PIPERIDINE-1-CARBONYL]-4-METHYL-4-[4-(OXETAN-3-YL)PIPERAZIN-1-YL]PENT-2-ENENITRILE” (priority 2023, published 2026)
